Results published in patent EP0211863B1, “VITAMIN D DERIVATIVES AND METHODS FOR PREPARING SAME” (WISCONSIN ALUMNI RESEARCH FOUNDATION, priority 1985, dated 1986).

Experiments:
[1] = Bone calcium mobilization activity (serum calcium by atomic absorption); type: in vivo; settings: male weanling rats on low calcium, vitamin D deficient diet for 3 weeks; 650 pmole intrajugularly, 7 h prior to sacrifice; ± standard deviation from the mean
Procedure: Bone calcium mobilization activity of 1α,25-(OH)₂-26-homo-D₃ compounds
Male weanling rats were purchased from Holtzman Co., Madison, Wis. and fed ad libitum a low calcium, vitamin D deficient diet as described by Suda et al (J. Nutrition 100: 1049, 1970) and water for 3 weeks. The rats were then divided into 4 groups of 6 each and were intrajugularly given respectively 650 pmole of either 1α,25-(OH)₂-26-homo-D₃, 1α,25-(OH)₂-(22E)Δ²²-26-homo-D₃ or 1α,25-(OH)₂D₃ dissolved in 0.05 ml of 95% ethanol 7 h prior to sacrifice. […] The rats in the control group were given 0.05 ml of ethanol vehicle in the same manner. They were killed by decapitation, the blood was collected and centrifuged to obtain serum. Serum calcium concentration was determined with an atomic absorption spectrophotometer (Perkin-Elmer Model 214) in presence of 0.1% lanthanum chloride.

[2] = system: human promyelocytic leukemia cells (HL-60 cells); test: Phagocytosis assay for differentiation activity; type: cell-based; settings: four days (96 hr) incubation
Procedure: (§1) The human promyelocytic leukemia cell line (HL-60) was maintained in suspension culture in RPMl 1640 medium (Gibco, Grand Island, NY) supplemented with 10% (v/v) heat inactivated fetal calf serum, 100 ug/ml penicillin, 100 µg/ml streptomycin and 0.25 µg/ml fungizone. Cells were cultured in a humidified atmosphere with 5% CO₂. Cell viability was assessed by standard assays, e.g. trypan blue exclusion. Morphological evaluations were done on Wright stained slide preparations.
(§2) Cells were seeded at 1.5 - 2 x 10⁵ cells/ml in 10 ml of medium in tissue culture dishes. […] Control cultures were treated with the same concentration of ethanol. After four days (96 hr) of incubation with test compounds, the cells were harvested from these culture dishes and cell number and viability were determined. […] After incubation of this mixture for 1 hr at 37°C, the number of phagocytic cells was counted (as determined by the trypan blue stained yeast appearing intracellularly) and expressed as a percent of the total viable cells present. […] After standing in a water bath for 30 min, the differentiated cells (i.e. the cells showing formazan blue deposits indicative of NBT reduction) were counted with a hemocytometer and expressed as the percent of total viable cells present.

[3] = system: human promyelocytic leukemia cells (HL-60 cells); test: NBT-reduction assay for differentiation; type: cell-based; settings: four days (96 hr) incubation, read-out: concentration to achieve 60% differentiation
Procedure: as §1, §2

Row | Structure (SMILES) | Serum Calcium Concentration [1] | EC50 ([2]; Homo sapiens, HL-60, phagocytosis assay, read-out: concentration to achieve 50% differentiation) [nM] | differentiation (% phagocytic cells) ([2]; concentration of 10⁻⁸ molar) | EC60 [3] [nM]
1 | C=C1/C(=C\C=C2/CCC[C@]3(C)[C@@H]([C@H](C)CCCC(C)(O)CC)CC[C@@H]23)C[C@@H](O)C[C@@H]1O (stereo partly drawn) [1α,25-(OH)₂-26-homo-D₃, (25ξ)-1α,25-Dihydroxy-26-homovitamin D₃] | 4.6 ± 0.2 ^b^) mg/100 ml |  |  | 
2 | C=C1/C(=C\C=C2/CCC[C@]3(C)[C@@H]([C@H](C)/C=C/CC(C)(O)CC)CC[C@@H]23)C[C@@H](O)C[C@@H]1O (stereo partly drawn) [1α,25-(OH)₂-(22E)Δ²²-26-homo-D₃, (22E,25ξ)-1α,25-Dihydroxy-22-dehydro-26-homovitamin D₃] | 4.6 ± 0.3 ^b^) mg/100 ml |  |  | 
3 | C=C1/C(=C\C=C2/CCC[C@]3(C)[C@@H]([C@H](C)CCCC(C)(C)O)CC[C@@H]23)C[C@@H](O)C[C@@H]1O [1α,25-(OH)₂D₃, 1α,25-dihydroxyvitamin D₃] | 4.5 ± 0.2 ^b^) mg/100 ml | ~10 | about 47% | 35
